{"source": "patent US20030032771A1", "about": "“Peptide inhibitors of cellular proliferation” (priority 2001, published 2003)", "system": "Drosophila early embryos (syncytial blastoderm)", "experiment": "Cytological analysis of mitosis in live Drosophila melanogaster embryos after microinjection (time-lapse confocal microscopy)", "type": "in vivo", "description": "Embryo microinjections. Microinjections of 0-2 hour Drosophila embryos were carried out as described previously (Sharp et al., J. Cell Biol. 144:125-138 (1999)). Briefly, embryos were initially injected with rhodamine-conjugated bovine tubulin (purchased from Molecular Probes or made in our own laboratory) allowed to recover for 5 minutes and then injected with antibodies or with buffer alone for controls. Because, in our hands, tubulin injections prior to the cortical migration of nuclei at cycle 10 […] normally halts development, embryos were injected with antibodies during cycle 11.\nTime-lapse laser scanning confocal microscopy. All images were acquired on a Leica TCS SP confocal microscope run by the Leica TCS software. Time-series were generated using the ‘Time Series’ function contained in the control panel. Each image results from two accumulated (averaged) scans of the sample and new images were acquired every 5 seconds. Because changes in the MT arrays of early embryos occur so quickly, all of the images shown and analyzed in this study represent 1 focal plane (no z-series' were performed). This allowed for the highest temporal and spatial resolution with the least amount of bleaching and other damage resulting from multiple laser scans.\nThe peptide expressed as described in Example 1 was delivered to Drosophila early embryos (synicytial blastoderm) by microinjections. Drosophila is a much studied organism; its genome has been fully sequenced and its genetics and biochemistry are well understood. In addition, it provides a convenient system for live cytological analyses of mitosis. In the early embryo (syncytial blastoderm) the nuclei form a two-dimensional sheet interconnected by cytoplasm, which proceed through mitosis meta-cynchronously. Because of this, it is possible to inject fluorescent probes like rhodamine tubulin into fly embryos that are transgenically carrying Green Fluorescent protein (GFP)-labeled chromosomes to watch chromosome move on spindle microtubules in real-time. […]"}
{"sequence": "GEKETPVQKCQRLQIEMNELLNEVAALQVDRKVADEEKQSYDAVVATVISTAR (Drosophila melanogaster) [peptide underlined in FIG. 4]", "values": [{"measurement": "formation of two daughter nuclei on mitotic spindles (chromosome separation from the metaphase plate)", "setting": "embryo microinjected with peptide, still images at about 80 seconds intervals, FIG. 5 panels C-E, rhodamine tubulin, GFP-histone", "result": "no spindles upon which two daughter nuclei are formed"}, {"measurement": "defects in spindle structure", "setting": "embryos injected with the peptide, during mitosis", "result": "no significant defects in spindle structure"}, {"measurement": "ability of chromosomes to separate in proliferative cells", "setting": "initial studies, peptide-injected Drosophila embryos", "result": "strongly and specifically inhibits"}]}
